Data from a melting point compilation (Tetko et al.; mined from patent text by program, amines drawn as free bases though some values may be those of a salt).

SMILES	melting point [°C]
O=Cc1c[nH]c2cccc(OCC3CO3)c12 (stereo not given)	108 to 110
CC(C)(c1cc(F)ccc1O)c1cc(Cl)ccc1O	125
CCCC12CCC(=O)C=C1c1c(cc(OCC3=NCCN3)c(Cl)c1Cl)C2 (stereo not given)	152 to 154
CCCCc1nc2c(c(C)c(C)n3nnnc23)n1CC(C)(C)N	144 to 147
CCOC(=O)C1C(C)=NC(N2CCCC2)=C(C(=O)OC(C)C)C1c1ccccc1C(F)(F)F (stereo not given)	102
OCC=Cc1ccc(Br)cc1F	38 to 40
COC(=O)Cn1c(C(=O)O)cc2cc(C)cc(C)c21	221 to 223
CCOC(=O)c1ncn(-c2nccs2)c1S(N)(=O)=O	84 to 85
CN1CC(c2ccc(S(C)(=O)=O)cc2)=C(c2cccc(Cl)c2)C1=O	168 to 170
CC(C)c1c(S(=O)(=O)c2ccc(O)cc2)cnn1C	209 to 210
CCN(CC)CCOc1ccc(Nc2ncc3c(n2)N(c2cccc(CCO)c2)C(=O)N(c2ccccc2Br)C3)cc1	98
O=c1ccc2ccc(OCCCN3CCCN(c4cccc(Cl)c4Cl)CC3)cc2[nH]1	117 to 118
COC(=O)C[C@@H]1C(=O)NC[C@H](Cc2cc(F)ccc2OC)C(=O)N1S(=O)(=O)c1ccc(Cl)cc1	73 to 76
CCOC(=O)CNC(=O)Nc1ccc(C(=O)/C=C/c2ccc(-c3cccs3)cc2)cc1	209 to 212
CC(=O)Nc1nnc(C(F)(F)C(Cl)Cl)s1	182 to 184
CC(C)C(NC(=O)N(C)Cc1nc2ccccc2[nH]1)C(=O)NN(C(=O)OCc1cccnc1)C(Cc1ccccc1)CC(O)CCc1ccccc1 (stereo not given)	110 to 114
CSc1ccc2cc[nH]c2c1	91 to 92
O=C1c2cccc3c4c(cc(c23)C(=O)N1O)OCO4	303 to 304
O=c1[nH]c(-c2[nH]c3ccccc3c2Cl)no1	240 to 241
COC(=O)C12COc3cc(C(F)(F)F)ccc3C1=NN(C(=O)Nc1ccc(C(F)(F)F)cn1)C2 (stereo not given)	194 to 195
N#Cc1ccc2c(c1)S(=O)c1ccc(F)cc1C=C2 (stereo not given)	240 to 243
COc1cc(C(=O)O)ccc1Cc1cccc2ccc(C(=O)NCC(C)C)cc12	254
O=C1NC(=O)C(=Cc2ccc(OCCN3CCN(c4ccccn4)CC3)cc2)S1	158 to 160
Cc1[nH]cc2c(=O)n(-c3ccc(Cl)cc3)nc-2c1-c1ccc(N2CCOCC2)cc1	306 to 315

SMILES	melting point [°C]
Nc1cc(C2=NOC(c3cc(Cl)cc(Cl)c3)(C(F)(F)F)C2)ccc1-n1cncn1 (stereo not given)	244 to 246
COc1ccc(-c2nnn(-c3cc(C)on3)c2N)cc1	136 to 141
COc1cccc(-c2nc(-c3ccccc3)c3ncc(-c4ccc(C(C)=O)cc4)cc3n2)c1	133 to 134
Cn1ncc2[nH]c3cccc(F)c3c(=O)c21	> 300
CCC1(CCCCN2CCc3sccc3C2)C(=O)Nc2cc(F)c(Cl)cc21 (stereo not given)	155 to 157
O=C(NNc1ccccc1)C1CSC(c2cccnc2)N1 (stereo not given)	155
CC(C)(C)OC(=O)CC[C@H](NC(=O)c1ccc(N(CCCl)CCCl)cc1F)C(=O)OC(C)(C)C	90 to 92
CC(C)(Oc1ccc(CN(Cc2ccccc2)c2ccc(Cl)cc2)cc1)C(=O)O	65 to 67
CCCCc1ccc(N(Cc2ccc(N(C)C)cc2)C(=O)C2CCCc3c(O)cccc32)cc1 (stereo not given)	138
CCOc1cccc(-c2cc(F)c(NC(=O)c3ccccc3CO)c(F)c2)c1	94.8 to 99.1
CCCCC1OC(=O)c2cc(NC3CCCCC3)ccc21 (stereo not given)	123 to 124
CCCNC(=S)c1ccc2c(c1)N([C@H](C)CN1CCC[C@@H](C)C1)c1ccccc1S2 (racemic)	126
COC(=O)c1cc(C(=O)NCCNC(C)=O)c2cc(Cc3ccc(F)cc3)cnc2c1O	251 to 253
O=C1OC(C2CCCCC2)(C2CCCCC2)C2CNCCN12 (stereo not given)	151 to 152
COc1ccc2cnc(N)nc2c1C1CCCC1	181 to 183
COCc1c2c(c(COC)n1-c1ccccc1)C(C)(C(N)=O)CC2(C)C (stereo not given)	168 to 170
O=C(O)CSc1cccc(CNC(=O)C2Cc3ccccc3N2S(=O)(=O)c2ccc(-c3cccc(C(F)(F)F)c3)cc2)c1 (stereo not given)	75
COc1nc(N)nc2c1ncn2CCC(CO)CO	84 to 86
Cc1nc2c3c(c(C(=O)N(C)CC(C)O)cc2n1C)CCC1(Cc2ccccc2C1)N3 (stereo not given)	258 to 259
CC(=O)Nn1c(C)nc2cc(C(F)(F)F)ccc21	214 to 216
CCC(C(OC)OC)N(C1CCCCC1)C1CCCCC1 (stereo not given)	73.5 to 74.2
O=c1nc(N2CCCC(O)C2)sc2ncccc12 (stereo not given)	208 to 211
Cn1cc(C#N)c(=O)c2cc3cc(F)c(F)cc3nc21	380
COc1ccc(C#CC(=Nc2ccc(OC)cc2)N2CCN(Cc3ccc(C)cc3)CC2)cc1	107

Now from value to molecule:

melting point [°C]	SMILES
143 to 145	COc1ccc(S(=O)(=O)n2ccc3ccnc(-c4ccc(C(F)(F)F)cc4)c32)cc1
130 to 133	Cn1ncnc1COc1nc2c(cc1CC(C)(C)C)nnn2-c1ccccc1F
137	N#CCCCSc1nccc(NC(N)=NCC(F)(F)F)n1
210 to 212	CCCCc1nc2c(N)nc3ccccc3c2n1CCCNS(=O)(=O)c1ccccc1
56 to 56.9	COc1cccc(C2OCCC(C)(C)C2(O)C(C)C)c1 (stereo not given)
160 to 163	CC(=O)NCc1ccc(CN2CCN(c3ncc(Br)s3)CC2)cc1
84 to 86	COC(=O)[C@H](c1ccccc1Cl)N1CCc2sc(OC(=O)c3ccccc3)cc2C1
147 to 149	CCCc1ccc(NC(=O)c2cccnc2NCc2ccncc2)cc1C(F)(F)F
91 to 94	COc1cc(N)c2ncccc2c1OCC(F)(F)F
260 to 270	CC(C)(C)c1cc(C2NNC(=S)N2N)cc(C(C)(C)C)c1O (stereo not given)
> 180	COc1ccc2cc([C@H](C)C(=O)OC[C@@H]3NC(=O)[C@@H](C(C)(C)S)NC3=O)ccc2c1
> 250	Nc1c(-c2csc(-c3ccncc3)n2)c(=O)[nH]c2ccccc12
227 to 230	O=c1[nH]c(=S)[nH]cc1Oc1cccnc1
193 to 195	O=C1CCc2c(-c3ccncc3)sc(-c3ccc(F)cc3)c21
229 to 231	CCc1nc2c(N)nc3cc(-c4cccnc4)ccc3c2n1CC1CCN(C(=O)OC(C)(C)C)CC1
201 to 202	FC(F)(F)c1cccc(-c2ccn3ncnc3n2)c1
228	O=C(Nc1ccncc1)c1ccc(OC(F)F)c2oc3ccc(C(F)(F)F)cc3c12
125	Cc1cccc(NC(=O)NCC(=O)N(CC(=O)OC(C)(C)C)c2cccc(OC(F)(F)F)c2)c1
68 to 79	COc1ccc(Nc2nc(Nc3cc4c(cc3OC)CCN(CC(=O)N(C)C)CC4)ncc2Cl)c(S(=O)(=O)C(C)C)c1
177 to 178	CC1(C)Oc2ccsc2C(NC(=O)c2ccc(C#N)cc2)C1O (stereo not given)
248 to 249	O=C(O)c1ccc(-c2ccccc2OC2OC(CO)C(O)C(O)C2O)cc1 (stereo not given)
42	CCCCCCCCCCCCCCCCCCOC(=O)C=CC(=O)OCC
200	Oc1ccc(-c2cccc(OC3SCC(O)C(O)C3O)c2)cn1 (stereo not given)
118 to 120	CNC(=O)NS(=O)(=O)c1cc(CCNC(=O)c2cc(Cl)ccc2OC)ccc1-c1ccco1
74 to 75	COC(=O)CCCNC(=O)C[C@H]1O[C@H](c2cccc(OC)c2OC)c2cc(Cl)ccc2N(CC(C)(C)C)C1=O
118	COc1ccc(S(N)(=O)=O)cc1C1CO1 (stereo not given)

melting point [°C]	SMILES
162 to 163	COc1cc2ncnc(N3CCc4ccccc43)c2cc1OC
128 to 133	Cc1ccc(C2N=C(c3ccccc3)NC3=C2CCc2c(-c4ccccc4)cc(-c4ccccc4)nc23)cc1 (stereo not given)
198 to 199	O=C(NCCO)c1cccc(-c2cc3c(ccn3Cc3ccc(Cl)cc3Cl)cn2)c1
125 to 127	CC(=O)c1cccc(NC(=S)N(C)N)c1
248 to 250	Oc1ccc(-c2nc3cc(O)cc(Br)c3o2)c(F)c1
165 to 168	CCCn1c(=O)c(C(=O)OCC)c(N)c2cccnc21
80 to 82	N#CCOC(=O)c1ccc([N+](=O)[O-])cc1
157 to 159	NC(=O)N(O)Cc1ccc(Br)cc1
73 to 75	O=S(=O)(Cl)c1ccc(-c2ccc(C(F)(F)F)cc2)s1
132 to 135	O=C(O)c1ccccc1C(=O)NCCCCc1cccnc1
119 to 120	CC(C)c1ccc(C2COc3ccc(NC(=O)CC(C)(C)C)cc32)cc1 (stereo not given)
123 to 125	Cn1ccc(-c2ccc3c(ccn3-c3ccc(F)cc3)c2)n1
201 to 203	O=C(NCC(=O)N1c2ccccc2N(Cc2ccccc2)C(=O)[C@H]2CCC[C@H]21)c1ccccc1 (relative stereo)
182 to 184	COc1c(N2CCC(NC3CC3)C(C)C2)c(F)cc2c(=O)c(C(=O)O)cn(C3CC3)c12 (stereo not given)
202 to 204	CCOC(=O)C(=O)C1Cc2ccc(NS(=O)(=O)c3ccc(C)cc3)cc2C1=O (stereo not given)
103 to 105	CCCCCCCCc1ccc(CCC(N)(CO)CO)cc1
142	Cn1cc(-c2ccccc2)c(=O)c(-c2ccc(Cl)cc2)c1
190 to 191	CCOCc1nc2c(N)nc3cc(OCc4cscn4)ccc3c2n1CC(C)(C)O
188 to 190	CCOCC1OC(n2cc(C(F)(F)F)c(=O)[nH]c2=O)CC1O (stereo not given)
88 to 100	CCOC(=O)c1cccc(-c2ccc3c(c2)C(O)CCC3)c1 (stereo not given)
144 to 146	Cc1cn(C(C)(C)C(=O)N(C)C)nc1-c1cccc(Cl)c1
255 to 257	Cc1ccc(C(=S)C2CCC3C4CCc5cc(C(=O)O)ccc5C4CCC23C)cc1 (stereo not given)
82 to 85	CCN1CC(=O)N(c2ccccc2C(F)(F)F)C1=S
89 to 91	O=C(O)C1Cc2ccccc2CN1C(=O)c1ccc(F)c(F)c1 (stereo not given)
143 to 144	Cn1cc(S(=O)(=O)NC(C)(C)C)c(=O)n(C)c1=O
121 to 122	Oc1c2c(nn1-c1ccccn1)CCCC2
